According to US8309558B2, “Compounds for the treatment of hepatitis C” (Bristol-Myers Squibb Company, priority 2008, dated 2012):
Where two headings read alike, the source gives them in different places.

What was measured:
HCV replicon cells = assay: HCV replicon FRET / luciferase assay (96-well plates); type: cell-based; conditions: Hepatitis C virus, HCV replicon, read-out: EC50
Outline: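 Replicon cells + titrated cpds, 37 °C CO2. Alamar blue for cytotoxicity, PBS rinse, then lysis reagent w/ 20 μM FRET peptide (EDANS/DABCYL), 150 mM NaCl; kinetic read ex340/em490, 20 cycles. Alt: Dual-Glo luciferase. EC50 = 50% drop in FRET/luciferase signal after background subtraction.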

[1] = target: T1, HCV NS5B RdRp genotype 1b (Hepatitis C virus genotype 1b, UniProt Q9WMX2); assay: Standard HCV NS5B RdRp enzyme assay; type: biochemical; conditions: HCV NS5B RdRp genotype 1b, read-out: IC50
T1 construct: The protein was expressed with an 18 amino acid C-terminal truncation to enhance the solubility; made in house; host or cells: E. coli BL21(DE3), pET21a vector
Outline: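 C-terminally truncated (18 aa) genotype 1b NS5B from E. coli, 28 nM, with 6 nM polyA template, 180 nM biotinylated oligo-dT12 primer and 3H-UTP (0.29 μM total UTP). Hepes pH 7.5 buffer with 2% DMSO; 60 min at 30° C. EDTA stop, SPA read-out; IC50 from seven concentrations by four-parameter fit.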

T1 sequence (Q9WMX2 2420-2992): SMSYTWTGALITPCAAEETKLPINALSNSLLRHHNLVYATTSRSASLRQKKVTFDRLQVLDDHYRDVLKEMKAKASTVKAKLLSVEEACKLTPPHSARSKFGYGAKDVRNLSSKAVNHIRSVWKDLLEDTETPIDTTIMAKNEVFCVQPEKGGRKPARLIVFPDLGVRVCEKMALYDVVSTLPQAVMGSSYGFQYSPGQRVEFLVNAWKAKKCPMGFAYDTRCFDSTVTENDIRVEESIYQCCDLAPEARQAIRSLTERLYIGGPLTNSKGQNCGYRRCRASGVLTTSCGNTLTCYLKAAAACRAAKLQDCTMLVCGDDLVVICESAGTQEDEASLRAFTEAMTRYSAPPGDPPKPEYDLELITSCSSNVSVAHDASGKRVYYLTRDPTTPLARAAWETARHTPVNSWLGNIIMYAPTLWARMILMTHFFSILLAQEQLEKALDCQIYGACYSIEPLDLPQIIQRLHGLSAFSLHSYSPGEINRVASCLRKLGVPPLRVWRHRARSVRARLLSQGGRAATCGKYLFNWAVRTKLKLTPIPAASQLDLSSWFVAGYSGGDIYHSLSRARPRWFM

| SMILES | EC50 (HCV replicon cells; Table 1b) | IC50 ([1]; Table 1b) | EC50 (HCV replicon cells; Table 1a) | IC50 ([1]; Table 1a) | further results |
| --- | --- | --- | --- | --- | --- |
| CNC(=O)c1c(-c2ccc(F)cc2)oc2ccc(-c3cc(C(=O)NC4(c5coc(C)n5)CC4)c(OC)cc3C)cc12 | < 250 nM | < 250 nM |  |  |  |
| CNC(=O)c1c(-c2ccc(F)cc2)oc2cc(NC(=O)COC)c(-c3cccc(C(=O)NC4(c5ccccc5)CC4)c3)cc12 |  |  | 250 to 1000 nM | 250 to 1000 nM |  |
| CNC(=O)c1c(-c2ccc(F)cc2)oc2ccc(-c3cc(C(=O)NCC(C)C)ccc3OC3CCC(N)C3)cc12 (stereo not drawn) | < 250 nM | < 250 nM |  |  |  |
| CNC(=O)c1c(-c2ccc(F)cc2)oc2ccc(-c3cc(C(=O)NC4(c5nnc(C(N)=O)[nH]5)CC4)ccc3C)cc12 | 250 to 1000 nM | < 250 nM |  |  |  |
| CNC(=O)c1c(-c2ccc(F)cc2)oc2ccc(-c3cccc(C(=O)N[C@@H](CO)CC(C)C)c3)cc12 |  |  | 1000 to 10000 nM | 1000 to 10000 nM |  |
| CCOc1cc(C(=O)NCC(C)C)cc(-c2ccc3oc(-c4ccc(F)cc4)c(C(=O)NC)c3c2)c1 | 1000 to 10000 nM | > 500 nM |  |  |  |
| CNC(=O)c1c(-c2ccc(F)cc2)oc2ccc(-c3cccc(C(=O)NCc4cccc(O)c4)c3)cc12 |  |  | < 250 nM | 250 to 1000 nM |  |
| CNC(=O)c1c(-c2ccc(F)cc2)oc2ccc(-c3cccc(C(=O)N(C)Cc4ccccc4)c3)cc12 |  |  | 250 to 1000 nM | 250 to 1000 nM |  |
| CNC(=O)c1c(-c2ccc(F)cc2)oc2cc([N+](=O)[O-])c(-c3cc(C(=O)NCC(C)C)ccc3OC)cc12 |  |  | 250 to 1000 nM | 250 to 1000 nM |  |
| CNC(=O)c1c(-c2ccc(F)cc2)oc2ccc(-c3ccc(OC)nc3OC)cc12 |  |  | > 1230 nM | > 10000 nM |  |
| CNC(=O)c1c(-c2ccc(F)cc2)oc2ccc(-c3cc(NC(=O)OC(C)(C)C)cc(C(=O)NCC(C)C)c3)cc12 | < 250 nM | 250 to 1000 nM |  |  |  |
| CNC(=O)c1c(-c2ccc(F)cc2)oc2ccc(-c3cccc(C(=O)NC4(c5ccccn5)CC4)c3F)cc12 | < 250 nM | < 250 nM |  |  |  |
| CNC(=O)c1c(-c2ccc(F)cc2)oc2ccc(-c3cc(C(=O)NCC(C)C)ccc3OCCCn3cccc3)cc12 | 250 to 1000 nM | 1000 to 10000 nM |  |  |  |
| CCC(CC)(NC(=O)c1ccc(Cl)c(-c2ccc3oc(-c4ccc(F)cc4)c(C(=O)NC)c3c2)c1)c1ccccc1 | < 250 nM | < 250 nM |  |  |  |
| CNC(=O)c1c(-c2ccc(F)cc2)oc2ccc(-c3ccc(-c4ccccc4COC)c(C(=O)NCC(C)C)c3)cc12 | < 250 nM | 250 to 1000 nM |  |  |  |
| CNC(=O)c1c(-c2ccc(F)cc2)oc2ccc(-c3cccc(C(=O)N(CCOC)CCOC)c3)cc12 |  |  | 1000 to 10000 nM | 1000 to 10000 nM |  |
| CNC(=O)c1c(-c2ccc(F)cc2)oc2ccc(-c3ccc(C(=O)N(C)Cc4cccnc4)cc3)cc12 [drawing 286] |  |  | > 10000 nM | 1000 to 10000 nM |  |
| CNC(=O)c1c(-c2ccc(F)cc2)oc2ccc(-c3cccc(C(=O)NC(C)(C)C(=O)N(C)C)c3)cc12 |  |  | < 250 nM | < 250 nM |  |
| CNC(=O)c1c(-c2ccc(F)cc2)oc2ccc(-c3cc(C(=O)NC4(c5nnc(-c6ccc(Cl)cc6)[nH]5)CC4)ccc3C)cc12 | < 250 nM | 250 to 1000 nM |  |  |  |
| CNC(=O)c1c(-c2ccc(F)cc2)oc2ccc(-c3cccc(S(C)(=O)=O)c3)cc12 |  |  | 1000 to 10000 nM | > 10000 nM |  |
| CCC[C@H](CO)NC(=O)c1cccc(-c2ccc3oc(-c4ccc(F)cc4)c(C(=O)NC)c3c2)c1 [drawing 228] |  |  | 1000 to 10000 nM | 1000 to 10000 nM |  |
| CNC(=O)c1c(-c2ccc(F)cc2)oc2ccc(-c3cccc(C(=O)Nc4cccc(OC)c4)c3)cc12 |  |  | 1000 to 10000 nM | 1000 to 10000 nM |  |
| CNC(=O)c1c(-c2ccc(F)cc2)oc2ccc(-c3cccc(C(=O)NC(C)(C)c4cccnc4)c3)cc12 | < 250 nM | < 250 nM |  |  |  |
| CNC(=O)c1c(-c2ccc(F)cc2)oc2ccc(-c3ccc(-c4cnn(C)c4)c(C(=O)NCC(C)C)c3)cc12 | < 250 nM | < 250 nM |  |  |  |
| CNC(=O)c1c(-c2ccc(F)cc2)oc2ccc(-c3cccc(-c4ccn[nH]4)c3)cc12 | 1000 to 10000 nM | 1000 to 10000 nM |  |  |  |
| CN1CN(C)c2c(-c3cccc(C(N)=O)c3)ccc3oc(-c4ccc(F)cc4)c(c23)C1=O [drawing 319] |  |  | > 10000 nM | > 10000 nM |  |
| CNC(=O)c1c(-c2ccc(F)cc2)oc2ccc(-c3cc(C(=O)NC4(c5ccccn5)CC4)c(OCCC(N)=O)cc3C)cc12 |  |  |  |  | EC50 (HCV replicon cells; 24 h, Table 1d (class symbols)): 1 to 250 nM; IC50 ([1]; Table 1d (class symbols)): < 20 nM |
| CNC(=O)c1c(-c2ccc(F)cc2)oc2ccc(-c3cccc(C(=O)Nc4cc(C)ccn4)c3)cc12 |  |  | < 250 nM | 250 to 1000 nM |  |
| CNC(=O)c1c(-c2ccc(F)cc2)oc2ccc(-c3ccc(C(=O)N4CCC[C@@H]4COC)cc3)cc12 [drawing 621] |  |  |  |  | EC50 (HCV replicon cells; untitled table after Table 1b, values without asterisk): 15400 nM; IC50 ([1]; untitled table after Table 1b): 10400 nM |
| CCCOc1cc(C(=O)NCC(C)C)cc(-c2ccc3oc(-c4ccc(F)cc4)c(C(=O)NC)c3c2)c1 | 1000 to 10000 nM | > 10000 nM |  |  |  |
